Source: ChEMBL document CHEMBL5137017, “Identification of NVP-CLR457 as an Orally Bioavailable Non-CNS-Penetrant pan-Class IA Phosphoinositol-3-Kinase Inhibitor” (J Med Chem, 2022)
Calls of active or inactive are those of the source. The rule behind the calls is not given here.

Assays:
[1] = Brain to blood ratio in OF1 mouse at 1 mg/kg, iv measured at 1 hr post dose by LC-MS/MS analysis; format: ADME, organism-based; conditions: brain and blood, read-out: BBR
[2] = cells; conditions: Rattus norvegicus, Rat1, 1 h
[3] = Brain to blood ratio in OF1 mouse at 1 mg/kg, iv measured at 5 mins post dose by LC-MS/MS analysis; format: ADME, organism-based; conditions: brain and blood, read-out: BBR
[4] = molecular target: T1, Serine/threonine-protein kinase mTOR (Homo sapiens, UniProt P42345); assay: Displacement of Alexa Fluor labelled Tracer-314 from human N-terminal GST-tagged mTOR incubated for 1 hr by TR-FRET assay
[5] = molecular target: T2, Tubulin (Homo sapiens) (UniProt P68371+Q9H4B7+P0DPH7+P68366+Q13509+Q71U36+P04350+Q3ZCM7+P07437+P68363+Q9BQE3+Q6PEY2+Q13885+Q9BVA1+Q9BUF5); assay: Binding affinity to tubulin in human A2058 cells assessed as condensed DNA score at 5 uM measured after 6 hrs by DiffQuick staining based microscopic analysis; format: cell-based
[6] = molecular target: T2, Tubulin (Homo sapiens); assay: Binding affinity to tubulin in human A2058 cells assessed as condensed DNA score at 5 uM measured after 24 hrs by DiffQuick staining based microscopic analysis; format: cell-based
[7] = molecular target: T1, Serine/threonine-protein kinase mTOR; assay: Binding affinity to human N-terminal GST-tagged mTOR assessed as phosphorylated 4EBP1 by TR-FRET assay
[8] = 1-octanol, logP of the compound at pH 7.4; format: physicochemical
[9] = system: Rat1; assay: Antitumor activity at rat Rat1 cells expressing myr-p110alpha xenografted in athymic nude mouse assessed as T/C ratio at 20 mg/kg, po bid measured after 14 to 22 days; format: functional; conditions: time 14-22 day
[10] = system: A2780; assay: Induction of cell cycle arrest in human A2780 cells assessed as G2/M marker expression level at 30 uM measured after 6 hr by immunofluorescence staining method; format: functional, cell-based
[11] = system: Rat1; assay: Antitumor activity at rat Rat1 cells expressing myr-p110alpha xenografted in athymic nude mouse assessed as T/C ratio at 30 mg/kg, po bid measured after 14 to 22 days; format: functional; conditions: time 14-22 day
[12] = Toxicity in athymic nude mouse xenografted with rat Rat1 cells expressing myr-p110delta assessed as body weight loss at 30 mg/kg, po bid measured for 7 to 15 days; format: organism-based; conditions: in vivo, time 7-15 day
[13] = Toxicity in athymic nude mouse xenografted with rat Rat1 cells expressing myr-p110alpha assessed as body weight loss at 20 to 30 mg/kg, po bid measured for 7 to 15 days; format: organism-based; conditions: in vivo, dose lower 20 mg/kg, time lower 7 day, dose upper 30 mg/kg, time upper 15 day
[14] = system: Rat1; assay: Antitumor activity at rat Rat1 cells expressing myr-p110delta xenografted in athymic nude mouse assessed as T/C ratio at 30 mg/kg, po bid measured after 7 to 15 days; format: functional; conditions: time 7-15 day
[15] = molecular target: Tubulin (Sus scrofa) (UniProt P02554+P02550); assay: Inhibition of porcine tubulin polymerization assessed as inhibition of microtubule polymerization at 15 to 30 uM measured after 1 hr; format: protein assay; conditions: dose 15-30 µM, DDE = dose-dependent effect
[16] = system: Rat1; assay: Antitumor activity at rat Rat1 cells expressing myr-p110delta xenografted in athymic nude mouse assessed as T/C ratio at 20 mg/kg, po bid measured after 7 to 15 days; format: functional; conditions: time 7-15 day
[17] = Toxicity in athymic nude mouse xenografted with rat Rat1 cells expressing myr-p110delta assessed as drug tolerance at 20 mg/kg, po bid measured for 7 to 15 days; format: organism-based; conditions: in vivo, time 7-15 day

Tubulin (Sus scrofa), sequence (P02550 whole entry, looked up): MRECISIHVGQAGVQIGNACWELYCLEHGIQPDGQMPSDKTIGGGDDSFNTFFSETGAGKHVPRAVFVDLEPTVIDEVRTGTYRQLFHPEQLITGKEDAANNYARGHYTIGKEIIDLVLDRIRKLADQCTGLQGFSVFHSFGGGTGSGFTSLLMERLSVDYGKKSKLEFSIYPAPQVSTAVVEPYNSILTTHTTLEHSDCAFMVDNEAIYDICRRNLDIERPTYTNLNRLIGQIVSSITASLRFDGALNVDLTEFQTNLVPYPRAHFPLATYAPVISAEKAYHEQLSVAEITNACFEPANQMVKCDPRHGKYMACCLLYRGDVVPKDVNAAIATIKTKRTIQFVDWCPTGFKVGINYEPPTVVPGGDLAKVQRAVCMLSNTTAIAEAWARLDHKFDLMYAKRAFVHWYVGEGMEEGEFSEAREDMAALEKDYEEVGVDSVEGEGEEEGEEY
Tubulin (Sus scrofa), sequence (P02554 whole entry, looked up): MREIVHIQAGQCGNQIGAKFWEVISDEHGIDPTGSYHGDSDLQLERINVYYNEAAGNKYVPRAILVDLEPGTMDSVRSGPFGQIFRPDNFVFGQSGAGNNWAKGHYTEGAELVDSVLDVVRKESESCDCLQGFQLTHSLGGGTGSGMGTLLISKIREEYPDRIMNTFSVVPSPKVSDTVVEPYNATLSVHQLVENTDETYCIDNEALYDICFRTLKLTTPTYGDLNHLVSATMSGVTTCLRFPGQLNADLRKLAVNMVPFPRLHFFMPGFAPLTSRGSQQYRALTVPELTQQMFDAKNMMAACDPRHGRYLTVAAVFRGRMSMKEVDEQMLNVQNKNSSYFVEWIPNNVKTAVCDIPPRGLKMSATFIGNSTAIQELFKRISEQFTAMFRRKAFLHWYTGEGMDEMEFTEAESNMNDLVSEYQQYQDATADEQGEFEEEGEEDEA

Kp at 1 h [1]	IC50 [2] [µM]	Kp at 5 min [3]	IC50 [4] [µM]	Activity [5] [%]	Activity [6] [%]	Structure (SMILES)	also measured
0.12	2.52	0.2	–	–	–	N#Cc1cc(N)ncc1-c1cc(N2CCOC(CCO)C2)nc(N2CCOCC2)n1 (racemic)	–
–	1.04	–	5.06	< 2	< 2	Nc1cc(C(F)(F)F)c(-c2cc(N3CCCCC3=O)nc(N3CCOCC3)n2)cn1	–
–	0.191	–	2.07	> 12	> 12	Nc1ncc(-c2cc(N3CCOCC3)nc(N3CCOCC3)n2)c(C(F)(F)F)n1	IC50 [7]: 6.31 µM
3.73	2.77	4.89	–	–	–	Nc1cc(C(F)(F)F)c(-c2cc(N3CCOC(c4ccccc4)C3)nc(N3CCOCC3)n2)cn1 (racemic)	–
–	0.111	–	2.18	–	–	Nc1ncc(-c2cc(N3CCOCC3)nc(N3C[C@H](CO)OC3=O)n2)c(C(F)(F)F)n1	–
–	0.267	–	4.97	–	–	Nc1cc(C(F)(F)F)c(-c2cc(N3CCCC3=O)nc(N3CCOCC3)n2)cn1	logD [8]: 2.1
–	1.07	–	6.8	–	–	Nc1cc(C(F)(F)F)c(-c2cc(N3CCOC3=O)nc(N3CCOCC3)n2)cn1	logD [8]: 2.7
1.74	–	1.98	–	> 12	> 12	Nc1cc(C(F)(F)F)c(-c2cc(N3CCOCC3)nc(N3CCOCC3)n2)cn1 [BUPARLISIB]	T/C [9]: -0.15; Activity [10]: Active; T/C [11]: -0.61; Activity [12]: -8%; Activity [13]: -7%; T/C [14]: 0.12; inhibition [15]: Dde; T/C [16]: 0.1; Activity [17]: Toxic
–	0.1	–	3.94	–	–	C[C@H]1OC(=O)N(c2nc(-c3cnc(N)nc3C(F)(F)F)cc(N3CCOCC3)n2)[C@H]1CC#N	–
0.12	3.66	0.23	–	–	–	CNC(=O)N(CCO)c1cc(-c2cnc(N)cc2C(F)(F)F)nc(N2CCOCC2)n1	–
–	0.481	–	–	< 2	< 2	Nc1ncc(-c2cc(N3CCOCC3)nc(N3CCOCC3)n2)c(=O)[nH]1	IC50 [7]: 0.44 µM
–	0.044	–	–	< 2	< 2	CS(=O)(=O)N1CCN(Cc2cc3nc(-c4cccc5[nH]ncc45)nc(N4CCOCC4)c3s2)CC1 [PICTILISIB]	–
–	0.101	–	> 9.1	–	–	Nc1ncc(-c2cc(N3CCOCC3)nc(N3C[C@@H](CO)OC3=O)n2)c(C(F)(F)F)n1	–
–	0.081	–	–	–	–	CC1(C)OC(=O)N(c2nc(-c3cnc(N)nc3C(F)(F)F)cc(N3CCOCC3)n2)[C@H]1CO	–
0.21	8.02	0.31	–	–	–	Nc1cc(C(F)(F)F)c(-c2cc(N3CCOC[C@H]3CO)nc(N3CCOCC3)n2)cn1	–
–	0.063	–	3.88	–	–	Nc1ncc(-c2cc(N3CCOCC3)nc(N3C(=O)OC[C@@H]3CO)n2)c(C(F)(F)F)n1	–
–	0.18	–	5.94	–	–	Nc1ncc(-c2cc(N3CCOCC3)nc(N3C(=O)OC[C@H]3CO)n2)c(C(F)(F)F)n1	–
1.91	0.239	3.23	–	> 12	6	COc1ccc2c(c1)OCCN2c1cc(-c2cnc(N)nc2)nc(N2CCOCC2)n1	IC50 [7]: > 9.1 µM
